In patent publication US9938811B2, “Method of enhancing fracture complexity using far-field divert systems” (Baker Hughes, LLC, priority 2013, dated 2018):

Assay: Dissolution in deionized water or HCl 15% (Example 1)
Assay type: physicochemical
Settings: 20 hours at 180° F., then 3 hours at room temperature
Method: Phthalic anhydride (obtained from a commercial supplier) and Sample A (8 g of each) were first mixed with 100 mL deionized water or HCl 15% and maintained for 20 hours at 180° F., and then cooled down to room temperature and kept for 3 hours.

In the case of O=C1OC(=O)c2ccccc21 [Commercial Phthalic Anhydride, Phthalic anhydride], the “Dissolved (%)” value (8 g in 100 mL HCl 15%) is reported as 4% and the “Dissolved (%)” value (8 g in 100 mL deionized water) is reported as 6%.
